# Test results taken from patent US9963474B2, “Mitochondria-targeted dicarbonyl sequestering compounds” (MEDICAL RESEARCH COUNCIL, priority 2013, dated 2018).
# Tests used:
# [1] = system: RLM respiring on glutamate/malate; test: Effect on respiration of isolated RLM (oxygen electrode); parameters: species or system rat
# Method: (A, B) RLM respiring on glutamate/malate at 37° C. were incubated with various concentrations of MitoG for 7 min in an oxygen electrode to measure coupled respiration (A) before ADP was added to measure phosphorylating respiration (B). Data are the percentage of the respiration rates of untreated controls (dashed lines). (C and D) C2C12 cells (C) or BAECs [Bovine Aortic Endothelial Cells; Cell Applications Inc, San Diego, Calif.] (D) were incubated with MitoG for 24 h and cell survival was then determined using the MTS assay. Data are expressed as a percentage of the untreated controls (dashed line). (E-H) BAECs were incubated with MitoG for 2 h at 37° C. and the cellular oxygen consumption rate (OCR) after the sequential additions of oligomycin, FCCP and antimycin A/rotenone were then measured using a Seahorse XF24 analyser. (E) OCR due to ATP synthesis, (F) OCR due to proton leak, (G) reserve capacity and (H) non-mitochondrial oxygen consumption. […]
# Rat liver mitochondria (RLM) were prepared at 4° C. in STE buffer [250 mM sucrose, 5 mM Tris and 1 mM EGTA, pH 7.4 (HCl)] by homogenisation and differential centrifugation. Protein concentration was determined using the biuret assay relative to bovine serum albumin (BSA) and was typically 40-60 mg/ml. […] Oxygen consumption rates were determined from the slopes using Chart v5.5.6. for Mac (AD Instruments, Australia). […]
# [2] = system: RLM respiring on glutamate/malate; test: Protection against dicarbonyl-induced respiratory depression in isolated RLM; parameters: species or system rat; conditions: 37° C.
# Method: (§1) Isolated RLM respiring on glutamate/malate were incubated with MitoG, methoxyphenylenediamine (MP) or butylTPP for 2 min, followed by 0.5 mM methylglyoxal or 5 mM glyoxal for 5 min. ADP was then added and the rate of oxygen consumption monitored at 37° C. (see FIGS. 12A & 12B). C2C12 cells were pre-treated with MitoG, methoxyphenylenediamine (MP) or butylTPP for 1 h before exposure to 1 mM methylglyoxal or 5 mM glyoxal (see FIGS. 12C & 12D). Following an overnight incubation, cell survival was determined using the MTS assay. Similar experiments were conducted in BAECs pre-treated with MitoG, MP or butylTPP. For all experiments, concentrations of methylglyoxal and glyoxal used were chosen based on results from studies conducted prior to the protection assays. In these prior studies, RLM or cells were exposed to a range of dicarbonyl concentrations, and the phosphorylating rates of respiration or cell survival were evaluated. The results of these earlier experiments are shown in insets, and dicarbonyl concentrations that had caused significant respiratory depression or cell death were chosen for use in the protection assays. Data for all groups were normalized against untreated controls. For RLM, the rate of respiration by untreated controls was taken to be 100%; for cells, cell survival of untreated controls was taken to be 100%. Results are expressed as mean±S.E. of three independent experiments. MitoG was protective against methylglyoxal-induced respiratory depression and both methylglyoxal- and glyoxal-induced cell death in C2C12 cells and BAECs. […] In FIG. 12 the symbols *, ** respectively indicate that P<0.05 or P<0.01 relative to dicarbonyl-only groups; and the symbols +, ++ respectively indicate that P<0.05 or P<0.01 relative to untreated controls.
# C2C12 cells = test: Protection against dicarbonyl-induced cell death, C2C12, MTS assay; type: cell-based, mouse; conditions: pre-treated 1 h, overnight
# Method: as §1
smiles,measurement,setting,value
"Nc1ccc(OCCCCCC[P+](c2ccccc2)(c2ccccc2)c2ccccc2)cc1N [MitoG, (6-(3,4-Diaminophenoxy)hexyl)triphenylphosphonium chloride]",coupled respiration (proton leak),[1]; 5 μM MitoG,slight increase in proton leak
same,phosphorylating respiration,[1]; up to 5 μM MitoG,no effect
same,protection against methylglyoxal-induced respiratory depression,[2]; 0.5 mM methylglyoxal,protected against methylglyoxal-induced respiratory depression in isolated RLM in a dose-dependent manner
same,protection against glyoxal-induced respiratory depression,[2]; 5 mM glyoxal,did not prevent glyoxal damage
same,protection against methylglyoxal-induced cell death,"C2C12 cells; C2C12, 1 mM methylglyoxal",protective
same,protection against glyoxal-induced cell death,"C2C12 cells; C2C12, 5 mM glyoxal",protective
